Reference: US11072567B2, “Urea-based blend composition and method for the manufacture thereof” (YARA INTERNATIONAL ASA, priority 2015, dated 2021)

What was measured:
[1] = Stability of nBTPT on urea blended with DAP, bagged storage at 20° C., HPLC analysis of nBTPT content; type: physicochemical; details: 2500 ppm added; 900 ppm nBTPT as Agrotain Ultra on urea blended with DAP 1:1; 14 days bagged storage at 20° C.
Description: (§1) For lab scale experiments, nBTPT was applied onto urea by adding 1.2 kg of urea-based compound to a lab scale drum. In a next step, the nBTPT material was slowly added. A residence time of 10 minutes was applied and the rotating speed of the drum was consequently the same in each experiment. In case a moisture repellent coating was added, a nebulizer was used and depending on the order of addition, the moisture repellent coating was added before or after addition of the nBTPT material. Before use, the moisture repellent coating was preheated to 80° C. Larger scale experiments with amounts up to 40 kg of fertilizer material were performed in a concrete mixer.
(§2) In a next step, one or more reactive alkaline or alkaline-forming inorganic or organic compounds that is able to interact with the one or more components selected from the group of nitrates, phosphates, sulphates and chlorides was added;
(§3) In a next step, a particulate material, comprising one or more components selected from the group of nitrates, phosphates, sulphates and chlorides was added;
(§4) All the components were mixed thoroughly.
Optionally, a coating to one or more of the particulate components that is able to increase at least the anti-caking and/or water repellent properties of said urea-based blend composition was added. Importantly, all the steps can be interchanged or the steps can be performed simultaneously.
(§5) The samples were stored under several conditions, dependent on the type of samples: • 20° C. closed plastic container with head space (Climate chamber, 80% relative humidity) • Bagged at room temperature (20-25° C.) or in nissenhut (an unconditioned bulk hall) • Open to air in nissenhut • Cylinder test in nissenhut • Open pile in nissenhut
(§6) HPLC analysis of nBTPT is done as described in the procedure CEN 15688-2007.
(§7) In practice, the urea-based compound treated with nBTPT was picked and separated manually from the particulate material, comprising one or more components selected from the group of nitrates, phosphates, sulphates and chlorides, and then subsequently dissolved in water for HPLC analysis.
Coating: Moisture repellent (MR) coating was made according to EP 0768993 A1 (Norsk Hydro ASA) by mixing about 28 weight % of wax, about 68 weight % of oil and about 4 weight % of a resin, applied in an amount of about 0.1-0.5% weight % to the fertilizer. It will be referred herein as NH coating.

[2] = type: physicochemical
Excerpt: With regard to the activity of the reactive alkaline or alkaline-forming inorganic or organic compounds, without being bound by theory, it is hypothesised that the reactive alkaline or alkaline-forming inorganic or organic compound neutralises the released phosphoric acid which is formed during decomposition of the urease inhibitor of the type phosphoric triamide in view of the fact that the decomposition of the urease inhibitor of the type phosphoric triamide is acid-catalysed. As such, the decomposition of the urease inhibitor of the type phosphoric triamide is slowed down. Furthermore, the stabilizer has the ability to immobilize the nitrates, phosphates, sulphates and chlorides and/or to convert the nitrates, phosphates, sulphates and chlorides into a form which is less reactive with the urease inhibitor of the type phosphoric triamide. For example, calcium oxide may react with ammonium sulphate in the presence of water, which is always present in small amounts in urea, to form calcium sulphate, which is nearly insoluble in an aqueous environment, such as a soil.

[3] = Stability of nBTPT in/on urea blends, storage open to air in jars in nissenhut, HPLC analysis of nBTPT content; type: physicochemical; details: for effect of addition on the stability of nBTPT: 2650 ppm added, 14 days open to air in jars at nissenhut; for stability of nBTPT (degradation): 35 days open to air in jars in nissenhut
Description: nBTPT was mixed in urea in the following way: nBTPT was added to urea melt and subsequently this mixture was granulated in a fluidized bed granulator.
as §1, §2, §3, §4, §5
(§8) Typically, a day/night cycle is generated in the nissenhut, with temperature fluctuations between 0 to 42° C. and fluctuations of relative humidity between 20 and 90%, which can be compared with real life storage in silos.
as §6, §7

[4] = Stability of nBTPT in/on urea:AS blend, bagged versus open to air storage in nissenhut; type: physicochemical; details: 500 ppm nBTPT in/on urea blended with granular AS 1:1; 35 days in nissenhut
Description: FIG. 8. Stability of different nBTPT formulations (500 ppm) in and on urea in a blend with granular AS: bagged versus open to air storage-% recovery of nBTPT after 35 days of storage in nissenhut (day/night cycle 16-42° C./27-77% relative humidity). • A=[500 ppm nBTPT powder in urea]+AS 1:1 • B=[500 ppm nBTPT powder on urea]+AS 1:1 • C=[500 ppm nBTPT as Agrotain® Ultra in urea]+AS 1:1 • D=[500 ppm nBTPT as Agrotain® Ultra on urea]+AS 1:1
as §5, §8, §6, §7

[O]=[Mg] [MgO, magnesium oxide]
effect of addition on the stability of nBTPT [1]: beneficial effect

talc
stabilizing effect on nBTPT [2]: no stabilizing effect

OCCNCCO [diethanolamine]
effect of addition on the stability of nBTPT [1]: beneficial effect

[O]=[Ca] [CaO, calcium oxide]
effect of addition on the stability of nBTPT ([3]; 500 ppm nBTPT powder in or on urea blended with DAP and KCl triple 19): beneficial effect
effect of addition on the stability of nBTPT ([3]; 500 ppm nBTPT powder in or on urea blended with granular AS 1:1): beneficial effect
effect of addition on the stability of nBTPT [1]: beneficial effect

[O]=[Zn] [ZnO, zinc oxide]
effect of addition on the stability of nBTPT [1]: beneficial effect

CCCCNP(N)(N)=S [nBTPT, N-(n-butyl) thiophosphoric triamide]
stability of nBTPT (degradation) ([3]; liquid nBTPT formulations in and on urea (500 ppm) blended with granular AS 1:1, 16-42° C./27-77% relative humidity): degrades very fast
stability of nBTPT (degradation) ([3]; nBTPT formulations in and on urea (500 ppm) blended with DAP and KCl, triple 19 ratio): degrades very dramatically
stability of nBTPT (degradation) ([3]; solid nBTPT in and on urea (500 ppm) blended with DAP 1:1): degrades very fast
stability of nBTPT (degradation) ([3]; solid nBTPT in and on urea (500 ppm) blended with KCl 1:1): degrades very fast
effect of bagged storage versus open to air storage on stability of nBTPT [4]: beneficial effect of bagged storage

CCN(CC)CC [triethylamine]
effect of addition on the stability of nBTPT [1]: beneficial effect

O=C([O-])[O-].[Ca+2] [CaCO3, calcium carbonate]
effect of addition on the stability of nBTPT [1]: beneficial effect
